Assay results as given in patent US5087634A, “N-substituted imidazol-2-one compounds for treatment of circulatory disorders” (G. D. Searle & Co., priority 1990, dated 1992).
Values joined by “and” are separate entries in the source; they are usually repeats but may differ in a detail not shown here. Equal entries are not always repeated.

Assays:
[1] = test system: angiotensin II pressor response; assay: In Vivo Intragastric Pressor Assay Response for AII Antagonists; design: species or system rat (male Sprague-Dawley); details: dose 10 (units not given), gavage, listed as EX. #1
Method: Male Sprague-Dawley rats weighing 225-300 grams were anesthetized with methohexital (30 mg/kg, i.p.) and catheters were implanted into the femoral artery and vein. The catheters were tunneled subcutaneously to exit dorsally, posterior to the head and between the scapulae. The catheters were filled with heparin (1000 units/ml of saline). The rats were returned to their cage and allowed regular rat chow and water ad libitum. After full recovery from surgery (3-4 days), rats were placed in Lucite holders and the arterial line was connected to a pressure transducer. Arterial pressure was recorded on a Gould polygraph (mmHg). […] After allowing one hour for pressure to stabilize, the test compound (suspended in 0.5% methylcellulose in water) was administered by gavage. The volume administered was 2 ml/kg body weight. Arterial pressure was monitored for 5 hours post-dosing. The angiotensin II infusion was then discontinued and pressure was allowed to reach a stable recovery level. Percent inhibition (%I) of the angiotensin II pressor response was calculated from the difference in pressure at a given timepoint post-dosing with the test compound and the antiotensin II-infused pressure, divided by the difference in pressure with and without the angiotensin II infusion; this value was multiplied by 100. Duration of action of a test compound was defined as the time taken for pressure to return to angiotensin II-infused baseline levels after compound administration. One compound at one dose was tested in each rat. The compound of Example I was tested in two rats.

[2] = biological target: smooth muscle angiotensin II receptor; assay: Angiotensin II Binding Activity (displacement of 125I-AII from rat uterine membranes); details: 25° C., 60 min, read-out: IC50 (50% displacement of the total specifically bound 125I-AII)
Method: Compounds of the invention were tested for ability to bind to the smooth muscle angiotensin II receptor using a rat uterine membrane preparation. Angiotensin II (AII) was purchased from Peninsula Labs. 125I-angiotensin II (specific activity of 2200 Ci/mmol) was purchased from Du Pont-New England Nuclear. Other chemicals were obtained from Sigma Chemical Co. This assay was carried out according to the method of Douglas et al [Endocrinoloby, 106, 120-124 (1980)]. Rat uterine membranes were prepared from fresh tissue. All procedures were carried out at 4° C. Uteri were stripped of fat and homogenized in phosphate-buffered saline at pH 7.4 containing 5 mM EDTA. The homogenate was centrifuged at 1500× g for 20 min., and the supernatant was recentrifuged at 100,000× g for 60 min. The pellet was resuspended in buffer consisting of 2 mM EDTA and 50 mM Tris-HCl (pH 7.5) to a final protein concentration of 4 mg/ml. Assay tubes were charged with 0.25 ml of a solution containing 5 mM MgCl2, 2 mM EDTA, 0.5% bovine serum albumin, 50 mM Tris-HCl, pH 7.5 and ^125 I-AJI (approximately 10^5 cpm) in the absence or in the presence of unlabelled ligand. […] Filters were assayed for radioactivity in a Micromedic gamma counter. […] Specific binding was calculated as total binding minus nonspecific binding. […] Binding data were analyzed by a nonlinear least-squares curve fitting program.

rabbit aortic rings = biological target: T1, rabbit aortic rings (Oryctolagus cuniculus, UniProt P34976); assay: In Vitro Vascular Smooth Muscle-Response for AII (rabbit aortic rings); design: species or system rabbit (male New Zealand white); details: antagonist 10^-5 M for 5 minutes before AII; rabbit aorta rings, 37° C.; read-out: pA2 value (converted)
T1 construct: The thoracic aorta was removed, cleaned of adherent fat and connective tissue and then cut into 3-mm ring segments; from tissue; host or cells: thoracic aorta rings of male New Zealand white rabbits, endothelium removed
T1 sequence (P34976 1-359): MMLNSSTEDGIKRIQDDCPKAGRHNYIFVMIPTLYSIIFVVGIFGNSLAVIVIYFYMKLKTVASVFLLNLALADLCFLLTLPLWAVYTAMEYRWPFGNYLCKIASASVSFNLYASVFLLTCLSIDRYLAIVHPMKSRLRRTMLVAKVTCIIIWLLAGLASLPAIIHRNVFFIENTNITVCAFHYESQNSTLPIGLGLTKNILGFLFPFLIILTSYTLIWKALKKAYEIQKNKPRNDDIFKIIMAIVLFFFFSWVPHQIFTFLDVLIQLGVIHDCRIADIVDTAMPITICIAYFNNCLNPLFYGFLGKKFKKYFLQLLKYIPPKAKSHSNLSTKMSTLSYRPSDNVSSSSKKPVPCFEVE
Method: The compounds of the invention were tested for antagonist activity in rabbit aortic rings. Male New Zealand white rabbits (2-2.5 kg) were sacrificed using an overdose of pentobarbital and exsanguinated via the carotid arteries. The thoracic aorta was removed, cleaned of adherent fat and connective tissue and then cut into 3-mm ring segments. The endothelium was removed from the rings by gently sliding a rolled-up piece of filter paper into the vessel lumen. The rings were then mounted in a water-jacketed tissue bath, maintained at 37° C., between moveable and fixed ends of a stainless steel wire with the moveable end attached to an FT03 Grass transducer coupled to a Model 7D Grass Polygraph for recording isometric force responses. The bath was filled with 20 ml of oxygenated (95% oxygen/5% carbon dioxide) Krebs solution of the following composition (mM): 130 NaCl, 15 NaHCO3, 15 KCl, 1.2 NaH2 P04, 1.2 MgSO4, 2.5 CaCl2, and 11.4 glucose. The preparations were equilibrated for one hour before approximately one gram of passive tension was placed on the rings. Angiotensin II concentration-response curves were then recorded (3×10^-10 to 1×10^-5 M). […] The effectiveness of the test compound was expressed in terms of pA2 values and were calculated according to H. O. Schild [Br. J. Pharmacol. Chemother., 2, 189-206 (1947)]. […] Each test antagonist was evaluated in aorta rings from two, rabbits.

angiotensin II = details: binding experiments, functional assays and in vivo tests; cited from earlier work
angiotensin II receptors = details: cited from earlier work

CCCCc1cn(CCCC)c(=O)n1Cc1ccc(-c2ccccc2-c2nnn[nH]2)cc1 [Example 1, 1,4-dibutyl-1,3-dihydro-3-[2'-(1H-tetrazol-5-yl)[1,1'biphenyl]-4-ylmethyl]-2H-imidazol-2-one]
mean arterial pressure after administration, time 10 ([1]; time 10, AII infusion 50 ng/kg/min, two rats (baseline/after AII 116/168 and 126/175 mmHg)): 165 mmHg and 166 mmHg
mean arterial pressure after administration, time 20 ([1]; time 20, AII-infused rats): 163 mmHg and 155 mmHg
mean arterial pressure after administration, time 30 ([1]; time 30, AII-infused rats): 159 mmHg and 147 mmHg
% inhibition (% I) of the AII pressor response, time 40 ([1]; time 40, AII-infused rats): 41% and 58%
mean arterial pressure after administration, time 40 ([1]; time 40, AII-infused rats): 146 mmHg and 147 mmHg
% inhibition (% I) of the AII pressor response, time 50 ([1]; time 50, AII-infused rats): 45% and 89%
mean arterial pressure after administration, time 50 ([1]; time 50, AII-infused rats): 144 mmHg and 132 mmHg
% inhibition (% I) of the AII pressor response, time 60 ([1]; time 60, AII-infused rats): 54% and 88%
mean arterial pressure after administration, time 60 ([1]; time 60, AII-infused rats): 140 mmHg and 132 mmHg
% inhibition (% I) of the AII pressor response, time 90 ([1]; time 90, AII-infused rats): 86% and 96%
mean arterial pressure after administration, time 90 ([1]; time 90, AII-infused rats): 123 mmHg and 128 mmHg
% inhibition (% I) of the AII pressor response, time 120 ([1]; time 120, AII-infused rats): 85% and 103%
mean arterial pressure after administration, time 120 ([1]; time 120, AII-infused rats): 124 mmHg and 125 mmHg
% inhibition (% I) of the AII pressor response, time 150 ([1]; time 150, AII-infused rats): 93% and 97%
mean arterial pressure after administration, time 150 ([1]; time 150, AII-infused rats): 119 mmHg and 128 mmHg
% inhibition (% I) of the AII pressor response, time 180 ([1]; time 180, AII-infused rats): 96% and 97%
mean arterial pressure after administration, time 180 ([1]; time 180, AII-infused rats): 117 mmHg and 127 mmHg
% inhibition (% I) of the AII pressor response, time 210 ([1]; time 210, AII-infused rats): 106% and 98%
mean arterial pressure after administration, time 210 ([1]; time 210, AII-infused rats): 113 mmHg and 127 mmHg
% inhibition (% I) of the AII pressor response, time 240 ([1]; time 240, AII-infused rats): 102% and 89%
mean arterial pressure after administration, time 240 ([1]; time 240, AII-infused rats): 115 mmHg and 131 mmHg
% inhibition (% I) of the AII pressor response, time 270 ([1]; time 270, AII-infused rats): 96% and 92%
mean arterial pressure after administration, time 270 ([1]; time 270, AII-infused rats): 117 mmHg and 130 mmHg
% inhibition (% I) of the AII pressor response, time 300 ([1]; time 300, AII-infused rats): 97% and 87%
mean arterial pressure after administration, time 300 ([1]; time 300, AII-infused rats): 117 mmHg and 133 mmHg
IC50 [2]: 6.4 nM
Kb (rabbit aortic rings): 2.51 nM

CCCCc1nc(Cl)c(CC(=O)O)n1Cc1ccccc1Cl [2-n-butyl-4-chloro-l-(2-chlorobenzyl)imidazole-5-acetic acid]
angiotensin II antagonist activity (angiotensin II): specific competitive angiotensin II antagonist activity

CNCC(=O)N[C@@H](CCCN=C(N)N)C(=O)N[C@H](C(=O)N[C@@H](Cc1ccc(O)cc1)C(=O)N[C@H](C(=O)N[C@@H](Cc1cnc[nH]1)C(=O)N1CCC[C@H]1C(=O)N[C@@H](C)C(=O)O)C(C)C)C(C)C [Saralasin]
residual agonist activity (angiotensin II receptors): significant residual agonist activity

CCCCc1nc(Cl)c(CC(=O)O)n1Cc1ccccc1[N+](=O)[O-] [2-butyl-4-choloro-l-(2-nitrobenzyl)imidazole-5-acetic acid]
angiotensin II antagonist activity (angiotensin II): specific competitive angiotensin II antagonist activity
